Measurements published in patent US20230391766A1, “1-(2-(4-CYCLOPROPYL-1H-1,2,3-TRIAZOL-1-YL)ACETYL)-4-HYDROXY-N-(BENZYL)PYRROLIDIN E-2-CARBOXAMIDE DERIVATIVES AS VHL INHIBITORS FOR THE TREATMENT OF ANEMIA AND CANCER” (Genentech, Inc., priority 2020, published 2023).

What was measured:
[1] = molecular target: T1, VHL Elongin B/C complex (Homo sapiens, UniProt P40337); experiment: Fluorescence Polarization (FP) VHL Binding Assay; conditions: fluorescence polarization tracer competition; geometric mean where more than one measurement
T1 construct: amino acids E55-D213 of human VHL with N-terminal His6 tag; His6 (N); TEV-protease cleavage site (N); made in house; host or cells: E. coli
T1 sequence (P40337 55-213): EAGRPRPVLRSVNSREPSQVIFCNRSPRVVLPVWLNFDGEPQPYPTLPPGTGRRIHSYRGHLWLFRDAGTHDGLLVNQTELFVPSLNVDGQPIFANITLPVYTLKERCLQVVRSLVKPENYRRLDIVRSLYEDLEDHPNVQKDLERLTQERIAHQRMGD
T1 sequence (Q15370 whole entry partner, the tested form may be a part): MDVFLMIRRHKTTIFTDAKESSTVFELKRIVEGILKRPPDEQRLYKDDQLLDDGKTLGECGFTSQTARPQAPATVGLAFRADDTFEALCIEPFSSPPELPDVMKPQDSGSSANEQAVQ
T1 sequence (Q15369 17-112 partner limits assumed): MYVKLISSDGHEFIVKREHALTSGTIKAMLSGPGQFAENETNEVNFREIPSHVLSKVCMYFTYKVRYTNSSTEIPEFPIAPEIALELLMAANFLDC
Method: The binding of test compounds to the VHL Elongin B/C complex was measured using a fluorescence polarization tracer competition assay. The VHL/Elongin B/C protein complex used in the assay was generated as follows. The coding region for amino acids E55-D213 of human VHL with N-terminal His6 tag with a TEV-protease cleavage site was co-expressed with Elongin B (residues M1-Q118) and Elongin C (Residues M17-C112) in E. coli. The VHL/Elongin B/C complex was purified using an affinity nickel column, anion exchange HiTrap QP HP column chromatography, and gel filtration using a Superdex 75 26/60 column. The purified VHL/Elongin B/C complex was dialyzed into formulation buffer: 20 mM Bis-Tris pH7.0, 150 mM NaCl, 1 mM DTT. A VHL fluorescence polarization probe consisted of a VHL ligand coupled to carboxytetramethylrhodamine (TAMRA); (2S,4R)—N-(2-(2-(3′,6′-bis(dimethylamino)-3-oxo-3H-spiro[isobenzofuran-1,9′-xanthene]-5-carboxamido)ethoxy)-4-(4-methylthiazol-5-yl)benzyl)-4-hydroxy-1-((R)-3-methyl-2-(3-methylisoxazol-5-yl)butanoyl)pyrrolidine-2-carboxamide. […] DMSO was dispensed into wells designated for “VHL control” (without compound) wells. The “Assay Buffer” consisted of 50 mM Tris pH 8.0, 120 mM NaCl, 0.005% Nonidet P-40, and 1% DMSO (v/v). Assay Buffer containing 5.28 μM VHL Elongin B/C complex was prepared and 5 μl dispensed using a BioRapTR (Beckman Coulter) into each well of the assay plate. Assay Buffer was also dispensed into “no VHL control” wells using the same method. A “pre-assay” fluorescence measurement was made using an Infinite® M1000 (Tecan) plate reader (Excitation 530 nm, Emission 574 nm, Bandwidth 10 nm). Assay Buffer containing 3.34 nM of the VHL FP probe was prepared in Assay Buffer and 5 μl dispensed into each well of the assay plate using a BioRapTR (Beckman Coulter). The final VHL/Elongin B/C protein concentration is 2.64 nM and the final probe concentration is 1.67 nM. Assay plates were briefly centrifuged and incubated for 1 hour at room temperature. “Post-assay” fluorescence polarization measurements were made as described for the “pre-assay” fluorescence measurement. Fluorescence polarization was calculated for each sample; taking into account the “pre-assay” fluorescence measurements and subtracting the fluorescence signal of the compound/VHL only (“pre-assay”) measurements from the “post-assay” fluorescence polarization measurements, for each plane of polarization. The data were analyzed using Genedata Screener software and normalized to the “no VHL control” and “VHL control” (without compound). IC50 values were calculated using a four parameter curve fit (Robust method).

[2] = molecular target: T2, VHL (Homo sapiens, UniProt P40337); experiment: VHL HEK-293 BRET Assay (VHL NanoBRET Target Engagement Assay); type: cell-based; conditions: for IC50: HEK 293 RT VHL-NanoLuc stable cells, 1 uM tracer, 2 hours, geometric mean where more than one measurement, read-out: VHL binding in cells (HEK293 nanoBRET); for Ratio cell permeability shift: ratio not defined
T2 construct: expressed in transfected cells
T2 sequence (P40337 whole entry): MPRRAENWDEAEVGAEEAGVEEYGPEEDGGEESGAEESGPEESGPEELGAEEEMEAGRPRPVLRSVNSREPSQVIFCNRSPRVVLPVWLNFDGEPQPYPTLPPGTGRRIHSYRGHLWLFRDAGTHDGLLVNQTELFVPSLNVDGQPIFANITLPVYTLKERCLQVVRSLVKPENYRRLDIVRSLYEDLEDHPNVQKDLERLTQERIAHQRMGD
Method: (§1) The VHL NanoBRET™ Target Engagement Assay analyzes the apparent affinity of test compounds for VHL in cells by competitive displacement of a VHL NanoBRET™ tracer reversibly bound to a NanoLuc® VHL fusion protein stably expressed in the cells.
(§2) 50 nL of control compound (10 mM; parental unlabeled VHL antagonist; see structure below) and 50 nL of DMSO (negative control) were dispensed into the appropriate control wells. DMSO was backfilled to a final volume of 50 nL as required. […] Max Signal control wells consisted of DMSO only treated wells. Minimum Signal control wells contained of 10 uM parental unlabeled VHL antagonist (control compound—see structure below). […] Background Signal control wells were prepared without tracer for background correction steps.
(§3) The raw BRET ratio values were calculated by dividing the acceptor emission value (610 nm) by the donor emission value (460 nm) for each sample. To correct for background, the BRET ratio in the absence of tracer (average of no-tracer control samples) was subtracted from the BRET ratio of each sample. Raw BRET units were converted to milliBRET units (mBU) by multiplying each raw BRET value by 1,000. The normalized NanoBRET™ signal was calculated relative to the Max Signal control wells (DMSO treated control wells) and the Minimum Signal control wells. Percentage inhibition was calculated relative to the Minimum Signal control and Maximum Signal control wells. IC50 values were derived by four parameter curve fitting using the Robust method.

[3] = molecular target: T2, VHL; experiment: VHL nanoBRET (+ Digitonin); type: cell-based
Method: as §1, §2, §3

| Compound | IC50 [1] [nM] | IC50 [2] [nM] | Ratio cell permeability shift [2] | EC50 [3] [nM] |
| --- | --- | --- | --- | --- |
| Cc1ncsc1-c1ccc(CNC(=O)[C@@H]2C[C@@H](O)CN2C(=O)[C@@H](n2cc(Cc3ccccc3)nn2)C(C)(C)C)cc1 [Example S27, (2S,4R)-1-((S)-2-(4-benzyl-1H-1,2,3-triazol-1-yl)-3,3-dimethylbutanoyl)-4-hydroxy-N-(4-(4-methylthiazol-5-yl)benzyl)pyrrolidine-2-carboxamide] | 20 | 20 | 0.88 | 20 |
| CC(=O)NCCOCc1cn([C@H](C(=O)N2C[C@H](O)C[C@H]2C(=O)N[C@H](Cc2ccc(-c3ccccc3)cc2)C(N)=O)C(C)(C)C)nn1 [Example S14, (2S,4R)—N—((R)-3-([1,1′-biphenyl]-4-yl)-1-amino-1-oxopropan-2-yl)-1-((S)-2-(4-((2-acetamidoethoxy)methyl)-1H-1,2,3-triazol-1-yl)-3,3-dimethylbutanoyl)-4-hydroxypyrrolidine-2-carboxamide] | 80 | 20700 | 264.37 | – |
| Cc1ncsc1-c1ccc(CNC(=O)[C@@H]2C[C@@H](O)CN2C(=O)[C@@H](n2cc(C3CC3)nn2)C(C)(C)C)cc1 [Example S24, (2S,4R)-1-((S)-2-(4-cyclopropyl-1H-1,2,3-triazol-1-yl)-3,3-dimethylbutanoyl)-4-hydroxy-N-(4-(4-methylthiazol-5-yl)benzyl)pyrrolidine-2-carboxamide] | 10 | 10 | 1.22 | 10 |
| CC(C)(C)[C@@H](C(=O)N1C[C@H](O)C[C@H]1C(=O)N[C@H](Cc1ccc(-c2ccccc2)cc1)C(N)=O)n1cc(C2CC2)nn1 [Example S3, (2S,4R)—N—((R)-3-([1,1′-biphenyl]-4-yl)-1-amino-1-oxopropan-2-yl)-1-((S)-2-(4-cyclopropyl-JH-1,2,3-triazol-1-yl)-3,3-dimethylbutanoyl)-4-hydroxypyrrolidine-2-carboxamide] | 150 | 150 | 0.97 | 140 |
| Cc1ncsc1-c1ccc([C@H](C)NC(=O)[C@@H]2C[C@@H](O)CN2C(=O)[C@H](C2CCCCC2)n2cc(C3CC3)nn2)cc1 [Example S19, (2S,4R)-1-((S)-2-cyclohexyl-2-(4-cyclopropyl-1H-1,2,3-triazol-1-yl)acetyl)-4-hydroxy-N—((S)-1-(4-(4-methylthiazol-5-yl)phenyl)ethyl)pyrrolidine-2-carboxamide] | – | < 5 | ~1 | < 5 |
| COC(=O)c1nnn([C@@H](C(=O)N2C[C@H](O)C[C@H]2C(=O)N[C@H](Cc2ccc(-c3ccccc3)cc2)C(N)=O)C(C)C)c1C (single isomer, unassigned) [Isomer A from Example S33] | – | 62500 | 1.43 | 43700 |
| Cc1ncsc1-c1ccc2c(c1)CCCC[C@H]2NC(=O)[C@@H]1C[C@@H](O)CN1C(=O)[C@@H](n1cc(C2CC2)nn1)C(C)(C)C [Example S44, (2S,4R)-1-((S)-2-(4-cyclopropyl-1H-1,2,3-triazol-1-yl)-3,3-dimethylbutanoyl)-4-hydroxy-N—((R)-2-(4-methylthiazol-5-yl)-6,7,8,9-tetrahydro-5H-benzo[7]annulen-5-yl)pyrrolidine-2-carboxamide] | – | < 5 | – | < 5 |
| C[C@H](NC(=O)[C@@H]1C[C@@H](O)CN1C(=O)[C@@H](n1cc(C2CC2)nn1)C(C)(C)C)c1ccc(-c2ccccc2Cl)cc1 [Example S46, (2S,4R)—N—((S)-1-(2′-chloro-[1,1′-biphenyl]-4-yl)ethyl)-1-((S)-2-(4-cyclopropyl-1H-1,2,3-triazol-1-yl)-3,3-dimethylbutanoyl)-4-hydroxypyrrolidine-2-carboxamide] | – | 10 | 0.84 | 10 |
